The record followed here is US8785489B2, “Heteroaryl substituted indole compounds useful as MMP-13 inhibitors” (Boehringer Ingelheim International GmbH, priority 2008, dated 2014).

In the assay the target is MMP13 (Homo sapiens (Human), UniProt P45452). The assay is described as follows: EnzoLyte 520 Generic MMP Assay Kit, 5-FAM/QXL 520 FRET peptide substrate. It counts as biochemical. The source says: The EnzoLyte™ 520 Generic MMP Assay Kit (AnaSpec Inc.) can detect the activity of several MMPs including MMP-1, 2, 3, 7, 8, 9, 13, and 14. This kit uses a 5-FAM/QXL™ 520 fluorescence resonance energy transfer (FRET) peptide as an MMP substrate. In the intact FRET peptide, the fluorescence of 5-FAM is quenched by QXL™ 520. Upon cleavage into two separate fragments by MMPs, the fluorescence of 5-FAM is recovered, and can be monitored at excitation/emission wavelengths=490 nm/520 nm. The assays are performed in a convenient 96-well or 384-well microplate format.
Compound `Cc1noc(-c2cc3cc(-c4cc(C(=O)NCc5ccn(C)n5)nn4C)ccc3[nH]2)n1` [1-methyl-5-[2-(3-methyl-1,2,4-oxadiazol-5-yl)-1H-indol-5-yl]-N-[(1-methyl-1H-pyrazol-3-yl)methyl]-1H-pyrazole-3-carboxamide] displayed an IC50 of 185 nM.
Take `Cc1noc(-c2cc3cc(-c4cc(C(=O)NCc5cnn(C)c5)nn4C)ccc3[nH]2)n1` [1-methyl-5-[2-(3-methyl-1,2,4-oxadiazol-5-yl)-1H-indol-5-yl]-N-[(1-methyl-1H-pyrazol-4-yl)methyl]-1H-pyrazole-3-carboxamide]: half-maximal inhibition (IC50) required 10 nM.
The figure for `Cc1noc(-c2cc3cc(-c4cc(C(=O)NCc5ccnn5C)nn4C)ccc3[nH]2)n1` [1-methyl-5-[2-(3-methyl-1,2,4-oxadiazol-5-yl)-1H-indol-5-yl]-N-[(1-methyl-1H-pyrazol-5-yl)methyl]-1H-pyrazole-3-carboxamide] is 125 nM.
As for `Cc1noc(-c2cc3cc(-c4cc(C(=O)NCc5cc(C)on5)nn4C)ccc3[nH]2)n1` [1-methyl-N-[(5-methylisoxazol-3-yl)methyl]-5-[2-(3-methyl-1,2,4-oxadiazol-5-yl)-1H-indol-5-yl]-1H-pyrazole-3-carboxamide], the figure is 24 nM; as for `O=C(NCc1ccncc1)c1cc(-c2ccc3[nH]c(-c4ccncc4)cc3c2)ccn1` [4-(2-Pyridin-4-yl-1H-indol-5-yl)-pyridine-2-carboxylic acid (pyridin-4-ylmethyl)-amide], 62 nM; as for `CCOC(=O)c1cc2cc(-c3nc(C(=O)OCC)[nH]c3C)ccc2[nH]1` [5-(2-Ethoxycarbonyl-5-methyl-1H-imidazol-4-yl)-1H-indole-2-carboxylic acid ethyl ester], 39 nM.
The compound `Cc1noc(-c2cc3cc(-c4nc(C(N)=O)[nH]c4C)ccc3[nH]2)n1` [5-methyl-4-[2-(3-methyl-1,2,4-oxadiazol-5-yl)-1H-indol-5-yl]-1H-imidazole-2-carboxamide] displayed an IC50 of 10 nM.
The figure for `Cc1noc(-c2cc3cc(-c4nc(C(=O)NCc5nccs5)[nH]c4C)ccc3[nH]2)n1` [5-methyl-4-[2-(3-methyl-1,2,4-oxadiazol-5-yl)-1H-indol-5-yl]-N-(1,3-thiazol-2-ylmethyl)-1H-imidazole-2-carboxamide] is 2 nM.
With `Cc1noc(-c2cc3cc(-c4nc(C(=O)NCC5CCOCC5)[nH]c4C)ccc3[nH]2)n1` [5-methyl-4-[2-(3-methyl-1,2,4-oxadiazol-5-yl)-1H-indol-5-yl]-N-(tetrahydro-2H-pyran-4-ylmethyl)-1H-imidazole-2-carboxamide], the half-maximal inhibitory concentration (IC50) is 1.1 nM. Compared with the last compound, the IC50 is about 1.8-fold lower.
As for `Cc1noc(-c2cc3cc(-c4nc(C(=O)NCC5CCCO5)[nH]c4C)ccc3[nH]2)n1` (stereo not shown) [5-methyl-4-[2-(3-methyl-1,2,4-oxadiazol-5-yl)-1H-indol-5-yl]-N-(tetrahydrofuran-2-ylmethyl)-1H-imidazole-2-carboxamide], the figure is 3 nM; as for `Cc1noc(-c2cc3cc(-c4nc(C(=O)NCc5cnn(C)c5)[nH]c4C)ccc3[nH]2)n1` [5-methyl-4-[2-(3-methyl-1,2,4-oxadiazol-5-yl)-1H-indol-5-yl]-N-[(1-methyl-1H-pyrazol-4-yl)methyl]-1H-imidazole-2-carboxamide], 0.4 nM.
In the case of `Cc1noc(-c2cc3cc(-c4nc(C(=O)NC[C@H]5CCCO5)[nH]c4C)ccc3[nH]2)n1` [5-methyl-4-[2-(3-methyl-1,2,4-oxadiazol-5-yl)-1H-indol-5-yl]-N-[(2R)-tetrahydrofuran-2-ylmethyl]-1H-imidazole-2-carboxamide], the IC50 is 5 nM.
The figure for `Cc1noc(-c2cc3cc(-c4nc(C(=O)NC[C@@H]5CCCO5)[nH]c4C)ccc3[nH]2)n1` [5-methyl-4-[2-(3-methyl-1,2,4-oxadiazol-5-yl)-1H-indol-5-yl]-N-[(2S)-tetrahydrofuran-2-ylmethyl]-1H-imidazole-2-carboxamide] is 4 nM.

What is called IC50 is the point on the concentration scale where inhibition reaches its midpoint. A low value points to greater potency.
